{
  "source": "paper PMC10088252",
  "test": "Plasma PK after multiple doses for 28 days, Part A (PKAS), routine PK analysis",
  "type": "in vivo, human",
  "method": "Serial peripheral blood samples were collected at pre-dose on Cycle 1 Day 8, Cycle 1 Day 15 and Cycle 1 Day 22 for the trough concentration (Ctrough) obtained during the dosing interval. […] After Cycle 1, the Ctrough was measured every 4 or 8 or 12 weeks. The whole blood (3 mL) was taken intravenously and placed in sodium heparin tubes, gently turned over 15 times, and centrifuged within 1 h (4 °C 3000 rpm for 10 min). Two portions of the centrifuged upper plasma should be transferred to 1.5 mL centrifuge tubes with identification labels and stored at -80 °C. The following PK parameters were assessed: time to maximum plasma concentration at steady state (Tmax,ss), overall body clearance at steady state for extravascular dosage (CLss/F), terminal half-life (T1/2), plasma Ctrough observed in Cycle 1 at steady state, total volume of drug distribution at steady state according to the terminal phase (Vz,ss/F), AUC over a dosing interval (AUCtau), ratio of metabolites to parent drug calculated based on AUCtau (MP ratio).\nStatistical analyses were performed using SAS version 9.4 (SAS Institute, Cary, NC, USA). Age was expressed as median (range), and categorical variables were expressed as frequency (percentage). The 95% CIs of ORR and DCR were calculated using Clopper-Pearson method. The 95% CIs of PFS and OS were calculated using Brookmeyer-Crowley method. PK parameters were expressed as mean (standard deviation) or median (range), and analyzed using Phoenix version 8.0 (Certara, LP, Princeton, NJ, USA). No imputation method was performed for missing data.",
  "data": [
    {"smiles": "O=C(Nc1ccc(Oc2ccnc3c2CCN3)c(F)c1)c1c[nH]cc(-c2ccc(F)cc2)c1=O", "values": [
      {"measurement": "AUCtau, mean (SD)", "setting": "300 mg QD (n=7), 28 days", "value": "7680.0 (4120.0) h × ng/mL"},
      {"measurement": "CLss/F, mean (SD)", "setting": "300 mg QD (n=7), 28 days", "value": "50.4 (25.6) L/h"},
      {"measurement": "Cmax,ss, mean (SD)", "setting": "300 mg QD (n=7), 28 days", "value": "794.0 (370.0) ng/mL"},
      {"measurement": "Cmin,ss, mean (SD)", "setting": "300 mg QD (n=7), 28 days", "value": "104.0 (49.0) ng/mL"},
      {"measurement": "Ctrough, mean (SD)", "setting": "300 mg QD (n=7), 28 days", "value": "113.5 (55.0) ng/mL"},
      {"measurement": "T1/2, mean (SD)", "setting": "300 mg QD (n=7), 28 days", "value": "11.2 (2.8) h"},
      {"measurement": "Tmax,ss, mean (SD)", "setting": "300 mg QD (n=7), 28 days", "value": "3.9 (2.0) h"},
      {"measurement": "Vz,ss/F, mean (SD)", "setting": "300 mg QD (n=7), 28 days", "value": "781.0 (357.0) L"},
      {"measurement": "AUCtau, mean (SD)", "setting": "450 mg QD (n=7), 28 days", "value": "11,000.0 (5970.0) h × ng/mL"},
      {"measurement": "CLss/F, mean (SD)", "setting": "450 mg QD (n=7), 28 days", "value": "57.6 (39.5) L/h"},
      {"measurement": "Cmax,ss, mean (SD)", "setting": "450 mg QD (n=7), 28 days", "value": "932.0 (480.0) ng/mL"},
      {"measurement": "Cmin,ss, mean (SD)", "setting": "450 mg QD (n=7), 28 days", "value": "168.0 (127.0) ng/mL"},
      {"measurement": "Ctrough, mean (SD)", "setting": "450 mg QD (n=7), 28 days", "value": "184.1 (131.2) ng/mL"},
      {"measurement": "T1/2, mean (SD)", "setting": "450 mg QD (n=7), 28 days", "value": "11.8 (4.8) h"},
      {"measurement": "Tmax,ss, mean (SD)", "setting": "450 mg QD (n=7), 28 days", "value": "4.0 (1.0) h"},
      {"measurement": "Vz,ss/F, mean (SD)", "setting": "450 mg QD (n=7), 28 days", "value": "1050.0 (974.0) L"},
      {"measurement": "AUCtau, mean (SD)", "setting": "600 mg QD (n=7), 28 days", "value": "10,100.0 (5350.0) h × ng/mL"},
      {"measurement": "CLss/F, mean (SD)", "setting": "600 mg QD (n=7), 28 days", "value": "83.2 (58.9) L/h"},
      {"measurement": "Cmax,ss, mean (SD)", "setting": "600 mg QD (n=7), 28 days", "value": "788.0 (394.0) ng/mL"},
      {"measurement": "Cmin,ss, mean (SD)", "setting": "600 mg QD (n=7), 28 days", "value": "157.0 (89.6) ng/mL"},
      {"measurement": "Ctrough, mean (SD)", "setting": "600 mg QD (n=7), 28 days", "value": "203.9 (99.2) ng/mL"},
      {"measurement": "T1/2, mean (SD)", "setting": "600 mg QD (n=7), 28 days", "value": "12.7 (4.8) h"},
      {"measurement": "Tmax,ss, mean (SD)", "setting": "600 mg QD (n=7), 28 days", "value": "3.9 (2.0) h"},
      {"measurement": "Vz,ss/F, mean (SD)", "setting": "600 mg QD (n=7), 28 days", "value": "1780.0 (2080.0) L"},
      {"measurement": "Ctrough, mean (SD)", "setting": "Cycle 1 Day 8 (192 h), 300 mg QD (n=7)", "value": "163.0 (241.5) ng/mL"},
      {"measurement": "Ctrough, mean (SD)", "setting": "Cycle 1 Day 8 (192 h), 450 mg QD (n=7)", "value": "178.1 (128.0) ng/mL"},
      {"measurement": "Ctrough, mean (SD)", "setting": "Cycle 1 Day 8 (192 h), 600 mg QD (n=7)", "value": "165.6 (66.6) ng/mL"},
      {"measurement": "Ctrough, mean (SD)", "setting": "Cycle 1 Day 15 (360 h), 300 mg QD (n=7)", "value": "161.5 (126.3) ng/mL"},
      {"measurement": "Ctrough, mean (SD)", "setting": "Cycle 1 Day 15 (360 h), 450 mg QD (n=7)", "value": "216.5 (111.8) ng/mL"},
      {"measurement": "Ctrough, mean (SD)", "setting": "Cycle 1 Day 15 (360 h), 600 mg QD (n=7)", "value": "188.7 (67.3) ng/mL"},
      {"measurement": "Ctrough, mean (SD)", "setting": "Cycle 1 Day 22 (528 h), 300 mg QD (n=7)", "value": "124.2 (126.2) ng/mL"},
      {"measurement": "Ctrough, mean (SD)", "setting": "Cycle 1 Day 22 (528 h), 450 mg QD (n=7)", "value": "236.3 (83.4) ng/mL"},
      {"measurement": "Ctrough, mean (SD)", "setting": "Cycle 1 Day 22 (528 h), 600 mg QD (n=7)", "value": "164.1 (65.7) ng/mL"},
      {"measurement": "median Tmax,ss", "setting": "among 300, 450, 600 mg QD cohorts, 28 days", "value": 4.0, "unit": "h"},
      {"measurement": "time to steady state", "setting": "continuous administration", "value": "seven"}
    ]}
  ]
}
